Experimental data reported in patent publication US20130196986A1 (priority 2010, published 2013).

target: T1, P2X7 receptor (Homo sapiens, UniProt Q99572); assay: Ca++ flux assay (FLIPR) in P2X7-HEK-293 cell line stably expressing the full length P2X7 receptor, Bz-ATP activation; type: cell-based; settings: P2X7-HEK-293 cells; agonist Bz-ATP; fluorescence as total area over 90 seconds; read-out: P2X7 Ca Flux hu IC50
T1 construct: stably expressing the full length P2X7 receptor; expressed in transfected cells
T1 sequence (Q99572 1-595): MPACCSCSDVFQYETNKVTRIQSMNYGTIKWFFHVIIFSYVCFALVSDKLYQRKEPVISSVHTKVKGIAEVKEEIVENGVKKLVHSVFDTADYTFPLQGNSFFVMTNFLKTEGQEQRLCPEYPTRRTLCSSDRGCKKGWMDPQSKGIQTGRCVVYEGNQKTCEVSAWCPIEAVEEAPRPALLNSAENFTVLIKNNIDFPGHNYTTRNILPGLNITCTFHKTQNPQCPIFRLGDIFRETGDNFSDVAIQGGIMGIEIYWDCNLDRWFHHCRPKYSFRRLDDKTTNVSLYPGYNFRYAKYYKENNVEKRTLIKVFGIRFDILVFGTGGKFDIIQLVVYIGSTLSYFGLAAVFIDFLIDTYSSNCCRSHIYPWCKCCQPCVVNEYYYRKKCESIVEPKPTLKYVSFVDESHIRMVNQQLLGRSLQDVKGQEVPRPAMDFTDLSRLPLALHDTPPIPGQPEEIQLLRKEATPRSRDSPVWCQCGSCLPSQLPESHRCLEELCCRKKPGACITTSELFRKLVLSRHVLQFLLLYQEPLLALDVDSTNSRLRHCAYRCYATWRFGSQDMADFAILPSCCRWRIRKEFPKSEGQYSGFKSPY
Outline: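 HEK-293 cells stably expressing full-length P2X7 were loaded with Ca++-sensitive dye for 1 h, with compound added during loading. Cells were stimulated with Bz-ATP on FLIPR. Fluorescence was integrated as total area over 90 s, and IC50 was taken as 50% inhibition of the maximal Ca++ response.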

Row | Structure (SMILES) | IC50
1 | Cc1c(-n2ccn3c(S(=O)(=O)Cc4ccccc4F)nnc3c2=O)cccc1C(F)(F)F [Compound 120, 3-(2-fluorobenzylsulfonyl)-7-(2-methyl-3-(trifluoromethyl)phenyl)-[1,2,4]triazolo[4,3-a]pyrazin-8(7H)-one] | 0.0118 µM
2 | Cc1c(-n2ccn3c(SCc4cccs4)nnc3c2=O)cccc1C(F)(F)F [Compound 15, 7-(2-methyl-3-(trifluoromethyl)phenyl)-3-(thiophen-2-ylmethylthio)-[1,2,4]triazolo[4,3-a]pyrazin-8(7H)-one] | 0.0304 µM
3 | O=c1c2nnc(SC3c4ccccc4-c4ccccc43)n2ccn1-c1cccc(C(F)(F)F)c1Cl [Compound 26, 3-(9H-fluoren-9-ylthio)-7-(2-chloro-3-(trifluoromethyl)phenyl)-[1,2,4]triazolo[4,3-a]pyrazin-8(7H)-one] | 0.047 µM
4 | Cc1c(Cl)cccc1-n1ccn2c(SCc3ccccc3B(O)O)nnc2c1=O [Compound 24, 2-((7-(3-chloro-2-methylphenyl)-8-oxo-7,8-dihydro-[1,2,4]triazolo[4,3-a]pyrazin-3-ylthio)rnethyl)phenylboronic acid] | 1.01 µM
5 | COc1cc(CSc2nnc3c(=O)n(-c4cccc(Cl)c4C)ccn23)cc(OC)c1 [Compound 79, 7-(3-chloro-2-methylphenyl)-3-(3,5-dimethoxybenzylthio)-[1,2,4]triazolo[4,3-a]pyrazin-8(7H)-one] | 1.33 µM
6 | Cc1c(Cl)cccc1-n1ccn2c(SCc3ccccc3CCc3ccccc3)nnc2c1=O [Compound 44] | 0.553 µM
7 | Cc1c(Cl)cccc1-n1ccn2c(SCc3cccnc3)nnc2c1=O [Compound 96, 7-(3-chloro-2-methylphenyl)-3-(pyridin-3-ylmethylthio)-[1,2,4]triazolo[4,3-a]pyrazin-8(7H)-one] | 4.22 µM
8 | Cc1c(Cl)cccc1-n1ccn2c(SCc3ccccc3C#N)nnc2c1=O [Compound 87, 2((7-(3-chloro-2-methylphenyl)-8-oxo-7,8-dihydro-[1,2,4]triazolo[4,3-a]pyrazin-3-ylthio)methyl)benzonitrile] | 0.434 µM
9 | Cc1c(-n2ccn3c(SC(C)c4ccccc4)nnc3c2=O)cccc1C(F)(F)F (stereo not drawn) [Compound 62, 7-(2-methyl-3-(trifluoromethyl)phenyl)-3-(1-phenylethylthio)-[1,2,4]triazolo[4,3-a]pyrazin-8(7H)-one] | 0.0575 µM
10 | Cc1c(Cl)cccc1-n1ccn2c(S(=O)(=O)Cc3ccccc3N3CCOCC3)nnc2c1=O [Compound 158, 7-(3-chloro-2-methylphenyl)-3-(2-morpholinobenzylsulfonyl)-[1,2,4]triazolo[4,3-a]pyrazin-8(7H)-one] | 0.189 µM
11 | Cc1c(-n2ccn3c(SCc4cccc5c4-c4ccccc4C5)nnc3c2=O)cccc1C(F)(F)F [Compound 4, 3-((9H-fluoren-4-yl)methylthio)-7-(2-methyl-3-(trifluoromethyl)phenyl)-[1,2,4]triazolo[4,3-a]pyrazin-8(7H)-one] | 0.264 µM
12 | Cc1ccccc1CSc1nnc2c(=O)n(-c3cccc(C(F)(F)F)c3C)ccn12 [Compound 57, 7-(2-methyl-3-(trifluoromethyl)phenyl)-3-(2-methylbenzylthio)-[1,2,4]triazolo[4,3-a]pyrazin-8(7H)-one] | 0.0864 µM
13 | Cc1c(Cl)cccc1-n1ccn2c(S(=O)(=O)Cc3ccc(Cl)cc3)nnc2c1=O [Compound 157, 7-(3-chloro-2-methylphenyl)-3-(4-chlorobenzylsulfonyl)-[1,2,4]triazolo[4,3-a]pyrazin-8(7H)-one] | 0.136 µM
14 | Cc1c(Cl)cccc1-n1ccn2c(SCc3ccccc3Cc3ccccc3)nnc2c1=O [Compound 45, 3-(2-benzylbenzylthio)-7-(3-chloro-2-methylphenyl)-[1,2,4]triazolo[4,3-a]pyrazin-8(7H)-one] | 0.176 µM
15 | Cc1c(Cl)cccc1-n1ccn2c(SCc3ccccc3C(C)(C)C)nnc2c1=O [Compound 19, 3-(2-tent-butylbenzylthio)-7-(3-chloro-2-methylphenyl)-[1,2,4]triazolo[4,3-a]pyrazin-8(7H)-one] | 0.165 µM
16 | Cc1c(Cl)cccc1-n1ccn2c(SCc3ccccc3CS(=O)(=O)c3ccccc3)nnc2c1=O [Compound 43, 7-(3-chloro-2-methylphenyl)-3-(2-(phenylsulfonylmethyl)benzylthio)-[1,2,4]triazolo[4,3-a]pyrazin-8(7H)-one] | 0.233 µM
17 | Cc1c(Cl)cccc1-n1ccn2c(SCc3cccc(Cl)c3F)nnc2c1=O [Compound 63, 3-(3-chloro-2-fluorobenzylthio)-7-(3-chloro-2-methylphenyl)-[1,2,4]triazolo[4,3-a]pyrazin-8(7H)-one] | 2.54 µM
18 | O=c1c2nnc(SCc3cccc4ccccc34)n2ccn1-c1cccc(C(F)(F)F)c1Cl [Compound 27, 7-(2-chloro-3-(trifluoromethyl)phenyl)-3-(naphthalen-1-ylmethylthio)-[1,2,4]triazolo[4,3-a]pyrazin-8(7H)-one] | 0.166 µM
19 | Cc1c(Cl)cccc1-n1ccn2c(SCc3cccc(-c4ccccc4)c3)nnc2c1=O [Compound 46, 3-(biphenyl-3-ylmethylthio)-7-(3-chloro-2-methylphenyl)-[1,2,4]triazolo[4,3-a]pyrazin-8(7H)-one] | 3.5 µM
20 | Cc1c(-n2ccn3c(SCc4ccccc4-c4ccc(F)cc4)nnc3c2=O)cccc1C(F)(F)F [Compound 10, 3-((4′-fluorobiphenyl-2-yl)rnethylthio)-7-(2-methyl-3-(trifluoromethyl)phenyl)-[1,2,4]triazolo[4,3-a]pyrazin-8(7H)-one] | 0.0426 µM
21 | Cc1c(Cl)cccc1-n1ccn2c(SCC(=O)OC(C)(C)C)nnc2c1=O [Compound 107, tert-butyl 2-(7-(3-chloro-2-methylphenyl)-8-oxo-7,8-dihydro-[1,2,4]triazolo[4,3-a]pyrazin-3-ylthio)acetate] | 1.82 µM
22 | Cc1c(Cl)cccc1-n1ccn2c(SCc3ccc4ccccc4c3)nnc2c1=O [Compound 97, 7-(3-chloro-2-methylphenyl)-3-(naphthalen-2-ylmethylthio)-[1,2,4]triazolo[4,3-a]pyrazin-8(7H)-one] | 2.31 µM
23 | O=c1c2nnc(SCc3ccccc3)n2ccn1-c1ccccc1Cl [Compound 81, 3-(benzylthio)-7-(2-chlorophenyl)-[1,2,4]triazolo[4,3-a]pyrazin-8(7H)-one] | 0.946 µM
24 | Cc1c(Br)cccc1-n1ccn2c(SCc3cc(Cl)cc(Cl)c3)nnc2c1=O [Compound 83, 7-(3-brorno-2-methylphenyl)-3-(3,5-dichlorobenzylthio)-[1,2,4]triazolo[4,3-a]pyrazin-8(7H)-one] | 0.855 µM
25 | Cc1c(Cl)cccc1-n1ccn2c(SCc3ccccc3C(C)C)nnc2c1=O [Compound 41, 7-(3-chloro-2-methylphenyl)-3-(2-isopropylbenzylthio)-[1,2,4]triazolo[4,3-a]pyrazin-8(7H)-one] | 0.372 µM
26 | Cc1c(Cl)cccc1-n1ccn2c(S(=O)(=O)Cc3ccccc3Br)nnc2c1=O [Compound 128, 3-(2-bromobenzylsulfonyl)-7-(3-chloro-2-methylphenyl)-[1,2,4]triazolo[4,3-a]pyrazin-8(7H)-one] | 0.0169 µM
27 | Cc1ccc(-c2ccccc2CS(=O)(=O)c2nnc3c(=O)n(-c4cccc(C(F)(F)F)c4C)ccn23)cc1 [Compound 154, 7-(2-methyl-3-(trifluoromethyl)phenyl)-3-((4′-methylbiphenyl-2-yl)methylsulfonyl)-[1,2,4]triazolo[4,3-a]pyrazin-8(7H)-one] | 0.0519 µM
